Laboratory results: patent US20230002372A1, “AZAINDOLE CARBOXAMIDE COMPOUNDS FOR THE TREATMENT OF MYCOBACTERIAL INFECTIONS” (THE GLOBAL ALLIANCE FOR TB DRUG DEVELOPMENT, INC., priority 2019, published 2023)
Values after ≈ are worked out from the molar mass of the structure shown.

The compounds below were run on M tb H37Rv (assay: MIC determination against M tb H37Rv (green fluorescent protein reporter assay; MIC-MABA)). Conditions: Mycobacterium tuberculosis, H37RV, 240 h, read-out: M. TB H37Rv: MIC-MABA: MIC, M. tb H37Rv; 7H9 broth; 10 days exposure; MIC = lowest concentration inhibiting fluorescence by 90%.
Assay type: cell-based, Mycobacterium tuberculosis

Going from `O=C(NC1CC2CCC(C2)C1)c1cc2c(F)ccnc2[nH]1` (stereo not shown) [MPL-157, N-(3-bicyclo[3.2.1]octanyl)-4-fluoro-1H-pyrrolo[2,3-b]pyridine-2-carboxamide] to `O=C(NC1CC2CCC(C2)C1)c1cc2c(Cl)cncc2[nH]1` (stereo not shown) [MPL-166, N-(3-bicyclo[3.2.1]octanyl)-4-chloro-1H-pyrrolo[2,3-c]pyridine-2-carboxamide], the MIC falls from 2.6 µg/mL (≈ 9.05 µM) to 0.39 µg/mL (≈ 1.28 µM) (6.7-fold).

Compared with `CC1(C)C=CC(NC(=O)c2cc3c(F)ccnc3[nH]2)CC1` (stereo not shown) [MPL-160, N-(4,4-dimethylcyclohex-2-en-1-yl)-4-fluoro-1H-pyrrolo[2,3-b]pyridine-2-carboxamide], `CC1(C)[C@H]2C[C@H](NC(=O)c3cc4c(F)ccnc4[nH]3)[C@](C)(O)[C@@H]1C2` [MPL-213, 4-fluoro-N-[(1R,2R,3S,5R)-2-hydroxy-2,6,6-trimethyl-norpinan-3-yl]-1H-pyrrolo[2,3-b]pyridine-2-carboxamide] is 17-fold lower in MIC: 0.77 µg/mL (≈ 2.68 µM) for the first, 0.046 µg/mL (≈ 0.139 µM) for the second.

Compared with `O=C(NC1CCC2(CC1)CC2)c1cc2c(Cl)cncc2[nH]1` [MPL-163, 4-chloro-N-spiro[2.5]octan-6-yl-1H-pyrrolo[2,3-c]pyridine-2-carboxamide], `O=C(NC1CCC2(CC1)CC2(F)F)c1cc2c(Cl)cncc2[nH]1` (stereo not shown) [MPL-164, 4-chloro-N-(1,1-difluorospiro[2.5]octan-6-yl)-1H-pyrrolo[2,3-c]pyridine-2-carboxamide] is 1.8-fold lower in MIC: 0.64 µg/mL (≈ 2.11 µM) for the first, 0.35 µg/mL (≈ 1.03 µM) for the second.

First: O=C(NC12CCC(CC1)CC2)c1cc2c(Cl)cncc2[nH]1 [MPL-170, N-(4-bicyclo[2.2.2]octanyl)-4-chloro-1H-pyrrolo[2,3-c]pyridine-2-carboxamide]
Second: C[Si]1(C)CCC(NC(=O)c2cc3c(Cl)cncc3[nH]2)CC1 [MPL-192, 4-chloro-N-(1,1-dimethylsilinan-4-yl)-1H-pyrrolo[2,3-c]pyridine-2-carboxamide]
The MIC of the first is 11-fold higher: 0.1 µg/mL (≈ 0.329 µM) for the first, 0.0093 µg/mL (≈ 0.0289 µM) for the second.

Going from `Cc1c(C(=O)N[C@H]2C[C@H]3C[C@@H]([C@@H]2C)C3(C)C)[nH]c2nccc(F)c12` [MPL-174, 4-fluoro-3-methyl-N-[(1S,2S,3S,5R)-2,6,6-trimethylnorpinan-3-yl]-1H-pyrrolo[2,3-b]pyridine-2-carboxamide] to `Cc1c(C(=O)NC2CC[Si](C)(C)CC2)[nH]c2nccc(F)c12` [MPL-210, N-(1,1-dimethylsilinan-4-yl)-4-fluoro-3-methyl-1H-pyrrolo[2,3-b]pyridine-2-carboxamide], the MIC falls from 0.19 µg/mL (≈ 0.577 µM) to 0.058 µg/mL (≈ 0.182 µM) (3.3-fold).

Compared with `CC1(C)C2CCC1(C)C(NC(=O)c1cc3c(Cl)cncc3[nH]1)C2` (stereo not shown) [MPL-189, 4-chloro-N-(1,7,7-trimethylnorbornan-2-yl)-1H-pyrrolo[2,3-c]pyridine-2-carboxamide], `CC1(C)C2CCC1(C)C(NC(=O)c1cc3c(C(F)(F)F)cncc3[nH]1)C2` (stereo not shown) [MPL-190, 4-(trifluoromethyl)-N-(1,7,7-trimethylnorbornan-2-yl)-1H-pyrrolo[2,3-c]pyridine-2-carboxamide] is 2.5-fold higher in MIC: 0.095 µg/mL (≈ 0.286 µM) for the first, 0.24 µg/mL (≈ 0.657 µM) for the second.

Compared with `C[Si]1(C)CCC(NC(=O)c2cc3c(F)cncc3[nH]2)CC1` [MPL-191, N-(1,1-dimethylsilinan-4-yl)-4-fluoro-1H-pyrrolo[2,3-c]pyridine-2-carboxamide], `COc1cncc2[nH]c(C(=O)NC3CC[Si](C)(C)CC3)cc12` [MPL-202, N-(1,1-dimethylsilinan-4-yl)-4-methoxy-1H-pyrrolo[2,3-c]pyridine-2-carboxamide] is 13-fold higher in MIC: 0.0087 µg/mL (≈ 0.0285 µM) for the first, 0.11 µg/mL (≈ 0.346 µM) for the second.

`COc1cc(F)cc2[nH]c(C(=O)NC3CC[Si](C)(C)CC3)cc12` [MPL-196, N-(1,1-dimethylsilinan-4-yl)-6-fluoro-4-methoxy-1H-indole-2-carboxamide] and `Cc1cc(F)c2cc(C(=O)NC3CC[Si](C)(C)CC3)[nH]c2n1` [MPL-207, N-(1,1-dimethylsilinan-4-yl)-4-fluoro-6-methyl-1H-pyrrolo[2,3-b]pyridine-2-carboxamide] are within 1.5-fold of each other in MIC: 0.0048 µg/mL (≈ 0.0144 µM) for the first, 0.0045 µg/mL (≈ 0.0141 µM) for the second.

Compared with `CC1(C)[C@H]2C[C@H](NC(=O)c3cc4c(C#N)ccnc4[nH]3)[C@](C)(O)[C@@H]1C2` [MPL-215, 4-cyano-N-[(1R,2R,3S,5R)-2-hydroxy-2,6,6-trimethyl-norpinan-3-yl]-1H-pyrrolo[2,3-b]pyridine-2-carboxamide], `CC1(C)[C@H]2C[C@H](NC(=O)c3cc4c(C(F)(F)F)ccnc4[nH]3)[C@](C)(O)[C@@H]1C2` [MPL-216, N-[(1R,2R,3S,5R)-2-hydroxy-2,6,6-trimethyl-norpinan-3-yl]-4-(trifluoromethyl)-1H-pyrrolo[2,3-b]pyridine-2-carboxamide] is 34-fold lower in MIC: 1.4 µg/mL (≈ 4.14 µM) for the first, 0.041 µg/mL (≈ 0.107 µM) for the second.

Compared with `Cc1cc(Cl)c2cc(C(=O)N[C@H]3C[C@H]4C[C@H](C4(C)C)[C@@]3(C)O)[nH]c2n1` [MPL-218, 4-chloro-N-[(1R,2R,3S,5R)-2-hydroxy-2,6,6-trimethyl-norpinan-3-yl]-6-methyl-1H-pyrrolo[2,3-b]pyridine-2-carboxamide], `Cc1nc2[nH]c(C(=O)N[C@H]3C[C@H]4C[C@H](C4(C)C)[C@@]3(C)O)cc2c(F)c1F` [MPL-294, 4,5-difluoro-N-[(1R,2R,3S,5R)-2-hydroxy-2,6,6-trimethyl-norpinan-3-yl]-6-methyl-1H-pyrrolo[2,3-b]pyridine-2-carboxamide] is higher in MIC: 0.037 µg/mL (≈ 0.102 µM) for the first, greater than 1 µg/mL for the second.

Compared with `CC1(C)[C@H]2C[C@H](NC(=O)c3cc4c(F)c(F)cnc4[nH]3)[C@](C)(O)[C@@H]1C2` [MPL-219, 4,5-difluoro-N-[(1R,2R,3S,5R)-2-hydroxy-2,6,6-trimethyl-norpinan-3-yl]-1H-pyrrolo[2,3-b]pyridine-2-carboxamide], `CC1(C)[C@H]2C[C@H](NC(=O)c3cc4c(F)cncc4[nH]3)[C@](C)(O)[C@@H]1C2` [MPL-221, 4-fluoro-N-[(1R,2R,3S,5R)-2-hydroxy-2,6,6-trimethyl-norpinan-3-yl]-1H-pyrrolo[2,3-c]pyridine-2-carboxamide] is 4.5-fold lower in MIC: 0.9 µg/mL (≈ 2.58 µM) for the first, 0.2 µg/mL (≈ 0.604 µM) for the second.

Going from `CC1(C)[C@H]2C[C@H](NC(=O)c3cc4c(Cl)cncc4[nH]3)[C@](C)(O)[C@@H]1C2` [MPL-222, 4-chloro-N-[(1R,2R, 3S, 5R)-2-hydroxy-2,6,6-trimethyl-norpinan-3-yl]-1H-Pyrrolo[2,3-c]pyridine-2-carboxamide] to `O=C(NC1CC[Si]2(CCCCC2)CC1)c1cc2c(Cl)cncc2[nH]1` [MPL-260, 4-chloro-N-(6-silaspiro[5.5]undecan-3-yl)-1H-pyrrolo[2,3-c]pyridine-2-carboxamide], the MIC falls from 0.19 µg/mL (≈ 0.546 µM) to 0.0075 µg/mL (≈ 0.0207 µM) (25-fold).

Compared with `Cc1c(C(=O)NC2CC[Si](C)(C)CC2)[nH]c2cncc(F)c12` [MPL-226, N-(1,1-dimethylsilinan-4-yl)-4-fluoro-3-methyl-1H-pyrrolo[2,3-c]pyridine-2-carboxamide], `Cc1nc2[nH]c(C(=O)NC3CC[Si](C)(C)CC3)cc2c(C)c1F` [MPL-237, N-(1,1-dimethylsilinan-4-yl)-5-fluoro-4,6-dimethyl-1H-pyrrolo[2,3-b]pyridine-2-carboxamide] is 16-fold lower in MIC: 0.75 µg/mL (≈ 2.35 µM) for the first, 0.047 µg/mL (≈ 0.141 µM) for the second.

Going from `Cc1nc(Cl)c(F)c2cc(C(=O)NC3CC[Si](C)(C)CC3)[nH]c12` [MPL-236, 5-chloro-N-(1,1-dimethylsilinan-4-yl)-4-fluoro-7-methyl-1H-pyrrolo[2,3-c]pyridine-2-carboxamide] to `Cc1nc2[nH]c(C(=O)NC3CCCC[Si](C)(C)CC3)cc2c(F)c1Cl` (stereo not shown) [MPL-292, 5-chloro-N-(1,1-dimethylsilocan-4-yl)-4-fluoro-6-methyl-1H-pyrrolo[2,3-b]pyridine-2-carboxamide], the MIC falls from 0.18 µg/mL (≈ 0.509 µM) to 0.0271 µg/mL (≈ 0.071 µM) (6.6-fold).

First: Cc1cc(F)c2cc(C(=O)NC3CC[Si]4(CCCC4)CC3)[nH]c2n1 [MPL-253, 4-fluoro-6-methyl-N-(5-silaspiro[4.5]decan-8-yl)-1H-pyrrolo[2,3-b]pyridine-2-carboxamide]
Second: Cc1cc(Cl)c2cc(C(=O)NC3CC[Si]4(CCCC4)CC3)[nH]c2n1 [MPL-276, 4-chloro-6-methyl-N-(5-silaspiro[4.5]decan-8-yl)-1H-pyrrolo[2,3-b]pyridine-2-carboxamide]
The MIC of the first is 3.7-fold higher: 0.056 µg/mL (≈ 0.162 µM) for the first, 0.015 µg/mL (≈ 0.0414 µM) for the second.

Compared with `O=C(NC1CC[Si]2(CCCC2)CC1)c1cc2c(F)cncc2[nH]1` [MPL-254, 4-fluoro-N-(5-silaspiro[4.5]decan-8-yl)-1H-pyrrolo[2,3-c]pyridine-2-carboxamide], `O=C(NC1CC[Si]2(CCCCC2)CC1)c1cc2c(F)cncc2[nH]1` [MPL-259, 4-fluoro-N-(6-silaspiro[5.5]undecan-3-yl)-1H-pyrrolo[2,3-c]pyridine-2-carboxamide] is 3.7-fold lower in MIC: 0.2 µg/mL (≈ 0.603 µM) for the first, 0.054 µg/mL (≈ 0.156 µM) for the second.

`Cc1cc(Cl)c2cc(C(=O)NC3CCCC[Si](C)(C)CC3)[nH]c2n1` (stereo not shown) [MPL-275, 4-chloro-N-(1,1-dimethylsilocan-4-yl)-6-methyl-1H-pyrrolo[2,3-b]pyridine-2-carboxamide] and `Cc1cc(Cl)c2cc(C(=O)NC3CC[Si]4(CCCCC4)CC3)[nH]c2n1` [MPL-277, 4-chloro-6-methyl-N-(6-silaspiro[5.5]undecan-3-yl)-1H-pyrrolo[2,3-b]pyridine-2-carboxamide] are within 1.5-fold of each other in MIC: 0.031 µg/mL (≈ 0.0852 µM) for the first, 0.045 µg/mL (≈ 0.12 µM) for the second.

Compared with `Cc1cc(F)c2c(C)c(C(=O)NC3CC[Si]4(CCCC4)CC3)[nH]c2n1` [MPL-280, 4-fluoro-3,6-dimethyl-N-(5-silaspiro[4.5]decan-8-yl)-1H-pyrrolo[2,3-b]pyridine-2-carboxamide], `Cc1cc(F)c2c(C)c(C(=O)NC3CC[Si]4(CCCCC4)CC3)[nH]c2n1` [MPL-281, 4-fluoro-3,6-dimethyl-N-(6-silaspiro[5.5]undecan-3-yl)-1H-pyrrolo[2,3-b]pyridine-2-carboxamide] is 2.8-fold lower in MIC: 0.043 µg/mL (≈ 0.12 µM) for the first, 0.0151 µg/mL (≈ 0.0404 µM) for the second.

First: Cc1nc2[nH]c(C(=O)NC3CCC[Si](C)(C)CC3)cc2c(F)c1F (stereo not shown) [MPL-282, N-(1,1-dimethylsilepan-4-yl)-4,5-difluoro-6-methyl-1H-pyrrolo[2,3-b]pyridine-2-carboxamide]
Second: Cc1nc2[nH]c(C(=O)NC3CC[Si]4(CCCC4)CC3)cc2c(F)c1F [MPL-284, 4,5-difluoro-6-methyl-N-(5-silaspiro[4.5]decan-8-yl)-1H-pyrrolo[2,3-b]pyridine-2-carboxamide]
The MIC of the first is lower: less than 0.004 µg/mL for the first, 0.026 µg/mL (≈ 0.0715 µM) for the second.

Going from `Cc1nc2[nH]c(C(=O)NC3CC[Si]4(CCCCC4)CC3)cc2c(F)c1F` [MPL-285, 4,5-difluoro-6-methyl-N-(6-silaspiro[5.5]undecan-3-yl)-1H-pyrrolo[2,3-b]pyridine-2-carboxamide] to `Cc1nc2[nH]c(C(=O)NC3CCCCCCC3)cc2c(F)c1F` [MPL-290, N-cyclooctyl-4,5-difluoro-6-methyl-1H-pyrrolo[2,3-b]pyridine-2-carboxamide], the MIC falls from 0.016 µg/mL (≈ 0.0424 µM) to 0.005 µg/mL (≈ 0.0156 µM) (3.2-fold).
